# Source: US12539281B2 (priority 2021, dated 2026)
# Assays:
# [1] = system: blood-brain barrier (BBB)
# From the text: EB dye is used as the non-BBB permeable substance. […] Photos of the perfused brain tissues are taken for observations and comparisons.
# EB dye is used as a non-BBB-permeable substance. […] Photographs of the perfused brain tissues harvested at different time points are taken for observation and comparison, as shown in FIG. 9 of the drawings.
# As a negative control, photographs of perfused brain tissues were taken from the following animals: the normal untreated mice; the mice were intravenously administered 2% EB; and the mice received the same dose of 0.3% EA mixed with a 2% EB solution intravenously as applied via intracardiac injection.
# brain tissues = details: IA 0.3% ethyl alcohol vs normal untreated mouse
# Protocol: Ultrathin sections of the brains previously processed with Pelco BioWave Pro (Pelco, Fresno, CA USA) are cut at 99 nm and collected on 200-mesh copper grids. The grids are post-stained in uranyl acetate (0.2%) and filtered for 15 min. Grids are further stained with lead citrate and filtered for 5 min. The Tecnai Spirit G2TEM (Nanoscience Initiative, Nicholas Terrace, New York, USA) with an installed Mega View camera is used to image the samples. The micrographs are illustrated in FIG. 5 of the drawings. The scale bar is 2 μm.
# brain tumor = details: IA ethyl alcohol + IA or IV Anti-PD-1, mice
# From the text: The standard detailed protocol is followed. Primary antibodies used are FITC-conjugated Armenian hamster anti-mouse PD-1 (11-9985-82, ThermoFisher Scientific, San Diego, CA USA), and rat anti-mouse PD-1 (BE0146, Bio X Cell, West Lebanon, NH USA). The secondary antibody is ALEXA FLUOR® 647 goat anti-rabbit (ab150083, Abcam).
# syngeneic mouse glioma = details: IA ethyl alcohol+Anti-PD-1 antibody vs untreated control and IV Anti-PD-1 antibody
# Protocol: Standard protocols for immunohistochemistry are followed. The primary antibody is rabbit anti-CD8 (ab4055, Abcam). Three independent experimental fields are examined, and images are analyzed and quantitated using ImageJ software of the National Institutes of Health.
# [2] = system: blood-brain barrier (BBB); remark: listed apart in the source
# Protocol: Photographs of the rats in the prone and supine positions are taken for observation and further analysis.
# Experimental rats are treated with varying concentrations of IA EA (in room temperature, 300 μl 5%, 3%, and 1% EA infused slowly in 1 minute, respectively) and are applied through the arterial catheter placed into the left internal carotid artery.
# Experimental rats are treated with varying concentrations of IA EA (in room temperature, 300 μl 0.3%, 0.1%, and 0.01% EA infused slowly in 1 minute, respectively). They are applied through the arterial catheter placed into the left internal carotid artery.
# The rapid visualization of the extravasated EB/albumin conjugate distribution after IA catheter delivery of 3% EA by fluorescence from EB dye by confocal microscopy is performed.
# The fluorescence from EB dye permits the rapid visualization of extravasated EB/albumin conjugate distribution after IA catheter delivery of 3% EA. An untreated rat group is used as a control. IA 3% EA+2% EB solution treatment is used as the testing group.
# The photographs of cryostatic brain sections from an untreated rat are stained with DAPI to illustrate the background nuclear staining under confocal imaging, respectively. The photo-/micrographs and magnified confocal images of the brain from the rat treated with IA 3% EA+2% EB solution are obtained for studies and comparison. The micrograph of the whole brain section is scanned by confocal microscopy to obtain the confocal images. The confocal images are further enlarged for observation.
# [3] = system: blood-brain barrier (BBB); details: rats
# From the text: In this experiment, the microcatheter is placed in the left internal carotid artery (ICA). The left internal carotid artery (ICA) leads to the left hemisphere of the brain. (That is, the selected intracerebral artery is the left internal carotid artery (ICA); and the target area is the left hemisphere of the brain.)
# Evans blue (EB) dye is used as the non-BBB permeable substance.
# To validate the limited, localized, and targeted BBB opening mediated by intra-arterial EA around the area supplied by the corresponding artery, a microcatheter is inserted from the CCA, proceeded along the ICA, positioned at the origin of the MCA, and infused with 300 μL of a 3% EA in a 2% EB dye solution. The effect of the compromised BBB can be determined by observing the penetration of the EB dye (doesn't pass through the BBB in normal physical condition).
# [4] = system: intracranial HER2-positive 4T1 breast cancer; details: IA ethyl alcohol with IV Trastuzumab vs IV Trastuzumab, mice with intracranial HER2-positive 4T1 tumor
# tight junction proteins = details: immediately after IA EA is administered
# From the text: The membrane and cytosolic proteins are extracted with a MEM-PER™ Plus Membrane Protein Extraction Kit (ThermoFisher Scientific, Waltham, MA USA). Proteins are separated by SDS-PAGE and transferred to nitrocellulose membranes. Primary antibodies used are rabbit anti-claudin-3 (ab15102), rabbit anti-claudin-5 (ab15106), rabbit anti-claudin-6 (ab99226), rabbit anti-JAM (ab125886), rabbit anti-occludin (ab222691, 1:200, Abcam, Cambridge, MA USA), and mouse anti-β-actin (66009, 1:1000, Proteintech, Rosemont, IL USA). Secondary antibodies used are HRP-conjugated goat anti-mouse (SA00001, 1:2500, Proteintech) and goat anti-rabbit (7074, 1:2500, Cell Signaling Technology).
# Western Blot examined and quantified the tight junction proteins in brain tissues.
# [5] = system: blood-brain barrier (BBB); details: intracardiac EA 3%, 1%, 0.3%, 0.1%, and 0.01% in 2% EB, rats
# From the text: Set up the ultrasound imaging system before anesthetizing the rats; to anesthetize the rats in an induction chamber using 3-4% isoflurane in 100% oxygen at a rate of 0.2-0.5 L/min; to confirm proper anesthetization before performing imaging by pinching the toe, rolling the rats. • 2. Remove the fur over the thorax area using hair removal cream. • 3. Place the experimental animal on the imaging table in the supine position and secure both the upper and lower limbs with adhesive tape to avoid body movement during the procedure. • 4. Clean up the skin of the thorax area using a 10% povidone/iodine swab followed by a 70% ethanol swab. Apply a thick layer of gel to the thorax area of the animal. • 5. Mount the transducer and adjust the position until the left ventricle is clearly visible. • 6. […] To visualize pulsating blood, keep a small air column in the syringe; advance the syringe towards the animal thorax, adjust the needle trajectory using the ultrasound guidance, and enter the left ventricle, and to complete the IC injection within 30 seconds. • 7. Withdraw the needle, release that rat, and monitor until complete recovery from anesthesia
# The rats are treated with varying concentrations of EA via intracardiac injection. […] Sham control (without treatment as negative control) is included in this experiment.
compound,measurement,setting,value
CCO [ethyl alcohol],extravasated EB dye in brain after intravenous EA,"[1]; 0.3% EA mixed with 2% EB given intravenously (negative control route), mice",No extravasated EB dye in any parts of the brain
same,BBB opening at 0 min time point,"[1]; IA 0.3% EA then IV 2% EB, euthanized immediately, mice","immediate, homogeneous, and highly efficient BBB opening"
same,level of blue color observed in the brain as lagged time of EB administration increased,"[1]; IA 0.3% ethyl alcohol, EB at 15, 60, 120, 240 min after, mice",decreased
same,interval window of the breached BBB,[1]; IA EA,about 2 hours
same,adverse effects,"[1]; IA/intracardiac 0.3% EA, mice","occasional adverse effects, such as mild epilepsy, but no moderate to severe epilepsy and sudden death were observed"
same,duration of transient BBB opening,"[1]; iv, 0.25 h",≤ 120 min
same,ultrastructure of brain tissues (TEM),brain tissues,many open spaces
same,anti-PD-1 antibody brain tumor entry,brain tumor,can mediate checkpoint inhibitor anti-PD-1 antibody brain tumor entry
same,replenishment of CD8+ T lymphocytes inside the tumor,syngeneic mouse glioma,significantly enhance the replenishment of CD8+ T lymphocytes
same,extravasated EB at the lowest concentration of EA,"[2]; 300 μl 0.01% EA in 1 minute via left ICA catheter, rats",can still be visualized in the left hemisphere of the brain tissue
same,extravasated EB in coronal sections,"[2]; 300 μl 5%, 3%, and 1% EA in 1 minute via left ICA catheter, 2 hours after, rats",spreading out homogeneously through almost the whole section of the left hemisphere of the brain
same,autofluorescence from EB/albumin by confocal microscopy,"[2]; IA 3% EA+2% EB, whole brain section, left hemisphere, rat",massive spreading of autofluorescence
same,location of extravasated EB,"[2]; left-side IA catheter, EA+2% EB, Fisher 344 rats","inside the left vitreous humor, but not inside the right"
same,extent of BBB opening (EB dye penetration),"[3]; 300 μL 3% EA in 2% EB, microcatheter at origin of MCA","site-specific BBB opening, which is limited to the area supplied by the MCA only"
same,delivery of EB dye to target area,"[3]; EA 0.1% to 0.5%, microcatheter in left ICA",can be used to deliver EB dye to the left hemisphere of the brain
same,"Trastuzumab brain tumor entry (integrated optical density, confocal imaging)",[4],significantly enhance
same,time for which tight junction proteins in the BBB are reduced,tight junction proteins,about 120 minutes
same,tinted blue color (extravasated Evans blue) in brain,[5],observed in all treatment groups
